Reference: ChEMBL document CHEMBL3988442, “University of Dundee, Small-Polar-MMV Screening Library” (2021)
“And” between values parts separate entries of the source, which are not always exact repeats. Equal values may be shown once.

Tests used:
[1] = test system: Mycobacterium tuberculosis; assay: Cornell M. t heat shock assay; assay type: functional, organism-based; conditions: for IC50: Mycobacterium tuberculosis
Histidine--tRNA ligase = biological target: T1, Histidine--tRNA ligase (Leishmania infantum, UniProt A4I591); assay: Leishmania infantum Histidine tRNA synthetase (LdHisRS); assay type: functional
T1 sequence (A4I591 whole entry): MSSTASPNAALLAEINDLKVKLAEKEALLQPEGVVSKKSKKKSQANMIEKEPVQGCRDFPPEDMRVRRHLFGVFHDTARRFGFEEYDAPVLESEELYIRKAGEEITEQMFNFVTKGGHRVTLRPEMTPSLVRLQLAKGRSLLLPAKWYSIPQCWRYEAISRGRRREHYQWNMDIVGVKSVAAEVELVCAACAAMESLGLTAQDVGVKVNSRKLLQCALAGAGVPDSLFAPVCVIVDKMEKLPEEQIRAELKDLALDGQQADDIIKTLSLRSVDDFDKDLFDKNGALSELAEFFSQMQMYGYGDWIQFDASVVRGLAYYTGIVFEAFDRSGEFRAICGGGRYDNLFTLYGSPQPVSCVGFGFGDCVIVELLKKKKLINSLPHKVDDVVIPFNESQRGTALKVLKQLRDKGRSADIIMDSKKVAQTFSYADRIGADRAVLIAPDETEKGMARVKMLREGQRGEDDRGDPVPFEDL

[2] = microbe, parasite or virus in culture; conditions: Mycobacterium tuberculosis, 96 h, read-out: pIC50 (converted)
[3] = microbe, parasite or virus in culture; conditions: Mycobacterium tuberculosis, 72 h, read-out: pIC50 (converted)
ClpP1P2 = ClpP1P2 (Mycobacterium tuberculosis (strain ATCC 25618 / H37Rv), UniProt P9WPC3+P9WPC5); assay: in vitro assay to detect presence of AMC directly proportional to the activity of ClpP1P2. GHDDI collaboration.; assay type: functional
Chain of ClpP1P2 (P9WPC5 whole entry): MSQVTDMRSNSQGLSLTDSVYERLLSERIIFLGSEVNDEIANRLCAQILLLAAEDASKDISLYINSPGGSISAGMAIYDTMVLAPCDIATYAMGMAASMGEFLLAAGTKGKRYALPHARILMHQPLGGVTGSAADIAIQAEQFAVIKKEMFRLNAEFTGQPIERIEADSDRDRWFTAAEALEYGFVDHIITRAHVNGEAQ
Chain of ClpP1P2 (P9WPC3 whole entry): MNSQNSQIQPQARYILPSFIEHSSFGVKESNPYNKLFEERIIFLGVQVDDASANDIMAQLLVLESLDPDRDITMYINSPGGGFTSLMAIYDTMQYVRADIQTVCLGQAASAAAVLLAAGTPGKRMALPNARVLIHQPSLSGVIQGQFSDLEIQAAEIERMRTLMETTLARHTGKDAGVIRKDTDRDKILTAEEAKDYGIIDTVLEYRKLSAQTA

Plasmodium falciparum = assay: Calibr Malaria Delayed Death Assay SOP; assay type: functional, organism-based; conditions: for IC50: Plasmodium falciparum
[4] = In vitro enzyme assay to detect hydrolysis of chlorophenol red-beta-D-[…] directly proportional to the number of Toxoplasma stably expressing beta-galactosidase; assay type: functional, organism-based, Toxoplasma gondii; conditions: for IC50: Toxoplasma gondii
Tryptophan--tRNA ligase = Tryptophan--tRNA ligase (Mycobacterium tuberculosis (strain ATCC 25618 / H37Rv), UniProt P9WFT3); assay: Biochemical assay for Mt-TrpRS; assay type: functional
Chain of Tryptophan--tRNA ligase (P9WFT3 whole entry): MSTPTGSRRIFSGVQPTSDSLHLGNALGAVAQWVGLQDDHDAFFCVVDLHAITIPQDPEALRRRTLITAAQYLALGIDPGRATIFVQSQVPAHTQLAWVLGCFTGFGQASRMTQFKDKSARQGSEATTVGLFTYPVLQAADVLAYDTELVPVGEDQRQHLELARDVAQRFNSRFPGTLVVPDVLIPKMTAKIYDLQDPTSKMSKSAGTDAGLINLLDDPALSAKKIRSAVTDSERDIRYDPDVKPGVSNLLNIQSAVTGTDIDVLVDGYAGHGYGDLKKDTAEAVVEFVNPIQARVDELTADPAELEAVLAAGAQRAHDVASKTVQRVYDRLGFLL

Structure (SMILES)	IC50 [1] [µM]	other results
c1ccc2nc(CN3CCCC3c3noc(C4CC4)n3)ccc2c1 (stereo unspecified)	23.8	–
Cc1nnc(NCc2ccccc2F)c(C#N)c1C	78.6	IC50 (Histidine--tRNA ligase): 16.9 µM and 23.1 µM
Cn1ccnc1C(NCc1ccc(Br)cc1)c1ccccc1 (stereo unspecified)	17.7	–
COc1cccc(C(NCc2ccc(SC)cc2)c2nccn2C)c1 (stereo unspecified)	6.39	–
COc1ccccc1C(NCc1ccc(SC)cc1)c1nccn1C (stereo unspecified)	48.8	–
CSc1ccc(CNC(c2ccc(F)cc2)c2nccn2C)cc1 (stereo unspecified)	32.5	–
Cn1ccnc1C(NCc1ccccc1)c1ccc(F)cc1 (stereo unspecified)	> 100	–
COc1cc(CNC(c2ccccc2)c2nccn2C)cc(OC)c1 (stereo unspecified)	2.41	–
Cc1cc(C)cc(CNC(c2ccccc2)c2nccn2C)c1 (stereo unspecified)	4.29	–
CCC(=O)N1CCN(C(=O)Cn2cccn2)CC1	22.2	–
Cc1cccc(CN2CCN(C(=O)c3cc(C4CC4)[nH]n3)CC2)c1	77.1	IC50 [2]: 25 µM; IC50 [3]: 25.8 µM
CCCNC(=O)NC(=O)CNC(C)(C)c1ccc2c(c1)OCCO2	23.5	IC50 [2]: 13.3 µM; IC50 [3]: 19 µM
Cc1cnn(CC2CCCN2Cc2nc3ccccc3c(=O)[nH]2)c1 (stereo unspecified)	17.9	–
O=c1[nH]c(CCN2CCCC2Cn2cncn2)nc2ccccc12 (stereo unspecified)	34.3	–
O=c1[nH]c(CCN2CCCC2Cn2cccn2)nc2ccccc12 (stereo unspecified)	47.5	–
CC(C)c1ncc2c(n1)CN(Cc1noc(-c3ccccc3)n1)CC2	36.9	IC50 (ClpP1P2): > 100 µM
CC(C)c1ncc2c(n1)CN(CCCc1nc3ccccc3o1)CC2	> 100	–
NC(=O)NC(=O)CCN1CCN(c2nccs2)CC1	35.1	–

Structure (SMILES)	IC50 [1] [µM]	other results
CC(Cn1cccn1)NCc1csc(COc2ccc(F)cc2)n1 (stereo unspecified)	17.2	–
CC(C)C1CCCN1CCCc1nc(-c2cccs2)no1 (stereo unspecified)	> 100	–
c1ccc(-c2nc(CN3CCCC(Cn4cncn4)C3)cs2)cc1 (stereo unspecified)	54.6	–
Cc1ncc(CNCCO)c2cc(C(=O)c3ccc(Br)cc3)oc12.Cl	> 49	pIC50 (Plasmodium falciparum): 6.356; IC50 (Plasmodium falciparum): 0.541 µM; IC50 [4]: 9.37 µM
CC(C)N(C(=O)Cn1c(-c2ccco2)cc2cccnc21)C(C)C	> 100	IC50 (ClpP1P2): > 100 µM
Cc1csc(C(Cc2ccsc2)NC(=O)CN(C)Cc2ccccn2)n1 (stereo unspecified)	> 100	IC50 (ClpP1P2): > 100 µM
CN(C)[C@@H]1CN(Cc2ccccc2O)C[C@H]1c1cn(C)c2ccccc12	28.3	IC50 (ClpP1P2): > 100 µM
Cl.Clc1cccc(N[C@H]2CCCN[C@H]2Cc2ccccc2)c1	7.22	pIC50 (Plasmodium falciparum): 6.045; IC50 (Plasmodium falciparum): 0.981 µM; IC50 [2]: 17 µM; IC50 [3]: 8.59 µM
Cc1cccc(CNC(Cc2ccsc2)c2nc(C)c(C)s2)n1.Cl (stereo unspecified)	8.25	IC50 [2]: > 50.1 µM; pIC50 [1]: 5.24; IC50 [3]: 31.7 µM; IC50 (ClpP1P2): > 100 µM
CSc1ccc(CNC(c2ccccc2F)c2nccn2C)cc1 (stereo unspecified)	16.4	–
Cc1ccc(CNC(c2ccccc2)c2nccn2C)cc1 (stereo unspecified)	19.9	–
COc1ccc(CCNCc2c(C)nn(C)c2N(C)C)cc1OC	> 100	–
Clc1cccc(C[C@@H]2NCCC[C@@H]2Nc2cccc(Cl)c2)c1	5.94	IC50 [2]: 9.04 µM; IC50 [3]: 6.67 µM
O=C(CN1CC(c2nc(C3CC3)no2)C1)N1CCOCC1.O=C(O)C(=O)O	> 100	pIC50 [4]: 5.075; IC50 [4]: 5.21 µM
Cc1ccc(CN(CCCn2ccnc2)Cc2cc(F)ccc2F)s1.O=C(O)CC(O)(CC(=O)O)C(=O)O	18.9	pIC50 [1]: 4.62; IC50 [4]: 7.16 µM
Cc1ccc(CN(CCCn2ccnc2)Cc2cccs2)s1	19.9	IC50 [2]: 25.9 µM; IC50 [3]: 42 µM; IC50 (Tryptophan--tRNA ligase): > 195 µM
COc1ccc(F)c(CN(CCCn2ccnc2)Cc2ccc(C)s2)c1.O=C(O)CC(O)(CC(=O)O)C(=O)O	27.4	pIC50 [1]: 4.599; IC50 [4]: 7.3 µM
